Assay results taken from patent US8192962B2, “Processes for detecting toxic substances” (Daikin Industries, Ltd., priority 2001, dated 2012).

Tested on: Unknown protein yeast genes
Assay: DNA chip mRNA expression in yeast, unknown protein yeast genes (Table 1)
Assay type: cell-based, Saccharomyces cerevisiae S288C
Experimental: Yeast (Saccharomyces cerevisiae S288C (α SUC2mal mel gap2 CUP1)) were incubated at 25° C. on YPD medium (yeast extract 1%, polypepton 2%, glucose 2%). One of toxic chemical substances was added to the cells at logarithmic growth phase, and the cells were further incubated for two hours. Cells were cultured without any chemical substance in the same condition, and were used as control. Concentrations of the chemical substances were defined to inhibit the growth of the yeast but not lead to death.
After completion of the incubation, the culture was centrifuged to collect the cells. To the cells, sodium acetate buffer (50 mM sodium acetate, 10 mM EDTA, 1% SDS) was added, and the mixture was shaken at 65° C. for five minutes, followed by returning to room temperature, and obtaining the supernatant, of which the procedures were repeated two times. To the supernatant, ½ amount of a solution of phenol/chloroform was added, and the mixture was centrifuged to give a supernatant, which was added with an equal amount of chloroform, and the mixture was centrifuged to give a supernatant. To the supernatant, an equal amount of isopropanol containing 0.3 M sodium acetate was added, and the mixture was allowed to stand at room temperature for 30 minutes, after which the mixture was centrifuged to give a sediment of the whole RNAs. Seventy % ethanol was added to the sediment, and the mixture was again centrifuged to give a sediment, which was then dried and dissolved in water. mRNA was isolated from the whole RNAs as followings. In view of the fact that a poly A chain is attached to the 3′ terminus of mRNA, a polynucleotide having a poly T structure which was immobilized on the surface of latex beads was used to trap the mRNA, and then the mRNA was washed and eluted with spine column (Oligotex-dT30<Super>mRNA Purification Kit, Takara). Reverse transcription of the mRNA was conducted with a reverse transcriptase (Super Script II Reverse Transcriptase; catalogue No. 18064-014, GibcoBRL) using fluorescence-labeled nucleotides to give cDNAs that were introduced with Cy3-dUTP or Cy5-dUTP during the reverse transcription.
The labeled cDNAs were dissolved in TE buffer (10mM Tris-HCl/1 mM EDTA, pH8.0), and the solution was dropped on the DNA chip containing the whole genes of yeast (DNA Chip Research Inc. Japan) so that the cDNAs were hybridized on the DNA chip at 65° C. for over 12 hours. The fluoresces intensity of the DNA chip was read with a scanner, and the ratio relative to the fluorescence intensity resulting from the absence of chemical substance was estimated as the following, which is shown in Tables 1 to 9: […]

O=[N+]([O-])c1cc[n+]([O-])c2ccccc12 [(5), 4-nitroquinolin-N-oxide]
The level of expressed mRNA in the presence of chemical substance/The level of expressed mRNA in the absence of chemical substance (yeast gene YKL071W): 1.1
The level of expressed mRNA in the presence of chemical substance/The level of expressed mRNA in the absence of chemical substance (yeast gene YKL086W, incubated two hours with chemical substance): 0.8
The level of expressed mRNA in the presence of chemical substance/The level of expressed mRNA in the absence of chemical substance (yeast gene YKL151C, incubated two hours with chemical substance): 1.0
The level of expressed mRNA in the presence of chemical substance/The level of expressed mRNA in the absence of chemical substance (yeast gene YKL153W, incubated two hours with chemical substance): 1.0
The level of expressed mRNA in the presence of chemical substance/The level of expressed mRNA in the absence of chemical substance (yeast gene YKL195W, incubated two hours with chemical substance): 1.9
The level of expressed mRNA in the presence of chemical substance/The level of expressed mRNA in the absence of chemical substance (yeast gene YKR091W, incubated two hours with chemical substance): 1.6
The level of expressed mRNA in the presence of chemical substance/The level of expressed mRNA in the absence of chemical substance (yeast gene YLR054C, incubated two hours with chemical substance): 1.3
The level of expressed mRNA in the presence of chemical substance/The level of expressed mRNA in the absence of chemical substance (yeast gene YLR149C, incubated two hours with chemical substance): 0.8
The level of expressed mRNA in the presence of chemical substance/The level of expressed mRNA in the absence of chemical substance (yeast gene YLR152C, incubated two hours with chemical substance): 1.1
The level of expressed mRNA in the presence of chemical substance/The level of expressed mRNA in the absence of chemical substance (yeast gene YLR194C, incubated two hours with chemical substance): 1.0
The level of expressed mRNA in the presence of chemical substance/The level of expressed mRNA in the absence of chemical substance (yeast gene YLR324W, incubated two hours with chemical substance): 1.3
The level of expressed mRNA in the presence of chemical substance/The level of expressed mRNA in the absence of chemical substance (yeast gene YLR339C): 1.3
The level of expressed mRNA in the presence of chemical substance/The level of expressed mRNA in the absence of chemical substance (yeast gene YLR350W, incubated two hours with chemical substance): 0.8
The level of expressed mRNA in the presence of chemical substance/The level of expressed mRNA in the absence of chemical substance (yeast gene YLR387C, incubated two hours with chemical substance): 1.3
The level of expressed mRNA in the presence of chemical substance/The level of expressed mRNA in the absence of chemical substance (yeast gene YLR460C): 1.3
The level of expressed mRNA in the presence of chemical substance/The level of expressed mRNA in the absence of chemical substance (yeast gene YML117W, incubated two hours with chemical substance): 0.8
The level of expressed mRNA in the presence of chemical substance/The level of expressed mRNA in the absence of chemical substance (yeast gene YMR007W): 1.3
The level of expressed mRNA in the presence of chemical substance/The level of expressed mRNA in the absence of chemical substance (yeast gene YMR009W, incubated two hours with chemical substance): 1.9
The level of expressed mRNA in the presence of chemical substance/The level of expressed mRNA in the absence of chemical substance (yeast gene YMR067C, incubated two hours with chemical substance): 1.1
The level of expressed mRNA in the presence of chemical substance/The level of expressed mRNA in the absence of chemical substance (yeast gene YMR090W): 0.7
The level of expressed mRNA in the presence of chemical substance/The level of expressed mRNA in the absence of chemical substance (yeast gene YMR095C, incubated two hours with chemical substance): 0.9
The level of expressed mRNA in the presence of chemical substance/The level of expressed mRNA in the absence of chemical substance (yeast gene YMR097C, incubated two hours with chemical substance): 0.7
The level of expressed mRNA in the presence of chemical substance/The level of expressed mRNA in the absence of chemical substance (yeast gene YMR102C, incubated two hours with chemical substance): 1.2
The level of expressed mRNA in the presence of chemical substance/The level of expressed mRNA in the absence of chemical substance (yeast gene YMR107W, incubated two hours with chemical substance): 1.1
The level of expressed mRNA in the presence of chemical substance/The level of expressed mRNA in the absence of chemical substance (yeast gene YMR180C, incubated two hours with chemical substance): 1.0
The level of expressed mRNA in the presence of chemical substance/The level of expressed mRNA in the absence of chemical substance (yeast gene YMR184W, incubated two hours with chemical substance): 0.8
The level of expressed mRNA in the presence of chemical substance/The level of expressed mRNA in the absence of chemical substance (yeast gene YMR191W, incubated two hours with chemical substance): 1.5
The level of expressed mRNA in the presence of chemical substance/The level of expressed mRNA in the absence of chemical substance (yeast gene YMR295C, incubated two hours with chemical substance): 1.4
The level of expressed mRNA in the presence of chemical substance/The level of expressed mRNA in the absence of chemical substance (yeast gene YMR316W, incubated two hours with chemical substance): 1.1
The level of expressed mRNA in the presence of chemical substance/The level of expressed mRNA in the absence of chemical substance (yeast gene YNL044W, incubated two hours with chemical substance): 1.2
The level of expressed mRNA in the presence of chemical substance/The level of expressed mRNA in the absence of chemical substance (yeast gene YNL074C, incubated two hours with chemical substance): 1.3
The level of expressed mRNA in the presence of chemical substance/The level of expressed mRNA in the absence of chemical substance (yeast gene YNL092W, incubated two hours with chemical substance): 0.9
The level of expressed mRNA in the presence of chemical substance/The level of expressed mRNA in the absence of chemical substance (yeast gene YNL115C, incubated two hours with chemical substance): 0.8
The level of expressed mRNA in the presence of chemical substance/The level of expressed mRNA in the absence of chemical substance (yeast gene YNL156C, incubated two hours with chemical substance): 1.6
The level of expressed mRNA in the presence of chemical substance/The level of expressed mRNA in the absence of chemical substance (yeast gene YNL234W, incubated two hours with chemical substance): 1.7
The level of expressed mRNA in the presence of chemical substance/The level of expressed mRNA in the absence of chemical substance (yeast gene YNL281W, incubated two hours with chemical substance): 1.7
The level of expressed mRNA in the presence of chemical substance/The level of expressed mRNA in the absence of chemical substance (yeast gene YNL305C, incubated two hours with chemical substance): 1.3
The level of expressed mRNA in the presence of chemical substance/The level of expressed mRNA in the absence of chemical substance (yeast gene YNR068C, incubated two hours with chemical substance): 1.7
The level of expressed mRNA in the presence of chemical substance/The level of expressed mRNA in the absence of chemical substance (yeast gene YOL032W, incubated two hours with chemical substance): 1.4
The level of expressed mRNA in the presence of chemical substance/The level of expressed mRNA in the absence of chemical substance (yeast gene YOL036W, incubated two hours with chemical substance): 1.2
The level of expressed mRNA in the presence of chemical substance/The level of expressed mRNA in the absence of chemical substance (yeast gene YOL047C, incubated two hours with chemical substance): 1.4
The level of expressed mRNA in the presence of chemical substance/The level of expressed mRNA in the absence of chemical substance (yeast gene YOL071W, incubated two hours with chemical substance): 0.9
The level of expressed mRNA in the presence of chemical substance/The level of expressed mRNA in the absence of chemical substance (yeast gene YOL082W, incubated two hours with chemical substance): 1.5
The level of expressed mRNA in the presence of chemical substance/The level of expressed mRNA in the absence of chemical substance (yeast gene YOL083W, incubated two hours with chemical substance): 1.4
The level of expressed mRNA in the presence of chemical substance/The level of expressed mRNA in the absence of chemical substance (yeast gene YOL117W, incubated two hours with chemical substance): 1.7
The level of expressed mRNA in the presence of chemical substance/The level of expressed mRNA in the absence of chemical substance (yeast gene YOL131W, incubated two hours with chemical substance): 1.5
The level of expressed mRNA in the presence of chemical substance/The level of expressed mRNA in the absence of chemical substance (yeast gene YOL150C): 1.0
The level of expressed mRNA in the presence of chemical substance/The level of expressed mRNA in the absence of chemical substance (yeast gene YOL162W, incubated two hours with chemical substance): 0.9
The level of expressed mRNA in the presence of chemical substance/The level of expressed mRNA in the absence of chemical substance (yeast gene YOR019W, incubated two hours with chemical substance): 1.4
The level of expressed mRNA in the presence of chemical substance/The level of expressed mRNA in the absence of chemical substance (yeast gene YOR129C): 1.3
The level of expressed mRNA in the presence of chemical substance/The level of expressed mRNA in the absence of chemical substance (yeast gene YOR197W, incubated two hours with chemical substance): 0.6
The level of expressed mRNA in the presence of chemical substance/The level of expressed mRNA in the absence of chemical substance (yeast gene YPL087W, incubated two hours with chemical substance): 0.6
The level of expressed mRNA in the presence of chemical substance/The level of expressed mRNA in the absence of chemical substance (yeast gene YPL196W, incubated two hours with chemical substance): 1.5
The level of expressed mRNA in the presence of chemical substance/The level of expressed mRNA in the absence of chemical substance (yeast gene YPL206C, incubated two hours with chemical substance): 0.7
The level of expressed mRNA in the presence of chemical substance/The level of expressed mRNA in the absence of chemical substance (yeast gene YPL222W, incubated two hours with chemical substance): 1.2
The level of expressed mRNA in the presence of chemical substance/The level of expressed mRNA in the absence of chemical substance (yeast gene YPL272C): 1.3
The level of expressed mRNA in the presence of chemical substance/The level of expressed mRNA in the absence of chemical substance (yeast gene YPR023C, incubated two hours with chemical substance): 1.1
The level of expressed mRNA in the presence of chemical substance/The level of expressed mRNA in the absence of chemical substance (yeast gene YPR150W): 1.3
The level of expressed mRNA in the presence of chemical substance/The level of expressed mRNA in the absence of chemical substance (yeast gene YPR151C, incubated two hours with chemical substance): 1.3
